Target: T1, δ receptor (delta opioid receptor) (Rattus norvegicus, UniProt P33533)
T1 construct: Rat Brain Membranes were Used as a Receptor Preparation; from tissue; host or cells: rat brain membranes
Test: δ receptor binding test (3H-DPDPE displacement)
Details: rat brain membranes, 3H-DPDPE 1.5 nM, 25° C., 70 minutes; read-out: IC50 (concentration at which binding of 3H-DPDPE is inhibited by 50%)
Method: Rat Brain Membranes were Used as a Receptor Preparation.
^3H-DPDPE ([D-Pen^2,D-Pen^5]-Enkephalin) was used as ^3H-labeled ligand.
Binding reaction using the ^3H-labeled ligand was carried out by the following method.
Preparation of Receptor Membranes:
Rat brain was homogenized in 50 mM Tris-HCl buffer (pH 7.4) containing 10 mM MgCl2 and 1 mM EDTA, and centrifuged at 48,000×g for 20 min, and the precipitate was washed once with Tris-HCl buffer. The washed precipitate was suspended in 50 mM Tris-HCl buffer (pH 7.4) containing 10 mM MgCl2 and 1 mM EDTA, to obtain a membrane preparation.
Delta Opioid Receptor Binding Test:
The membrane preparation (1 mg protein/ml), H-DPDPE (1.5 nM) and a test drug were reacted at 25° C. for 70 minutes. After completion of the reaction, the reaction mixture was filtered by suction through a glass filter (GF/B) treated with 0.3% polyethylene imine, and the glass filter was washed three times with 50 mM Tris-HCl buffer (pH 7.4) containing 10 mM MgCl2 and 1 mM EDTA. After the washing, scintillation cocktail was added to the filters, and the radioactivity of the filter was measured in a liquid scintillation counter.
The amount of ^3H-DPDPE bound when the reaction was carried out in the presence of 10 μM naltrindole was taken as the degree of nonspecific binding of ^3H-DPDPE, and the difference between the total degree of ^3H-DPDPE binding and the degree of nonspecific ^3H-DPDPE binding was taken as the degree of specific ^3H-DPDPE binding. An inhibition curve was obtained by reacting a definite concentration (1.5 nM) of ^3H-DPDPE with various concentrations of each test drug under the conditions described above. A concentration of the test drug at which binding of ^3H-DPDPE is inhibited by 50% (IC50) was determined from the inhibition curve.

T1 sequence (P33533 whole entry): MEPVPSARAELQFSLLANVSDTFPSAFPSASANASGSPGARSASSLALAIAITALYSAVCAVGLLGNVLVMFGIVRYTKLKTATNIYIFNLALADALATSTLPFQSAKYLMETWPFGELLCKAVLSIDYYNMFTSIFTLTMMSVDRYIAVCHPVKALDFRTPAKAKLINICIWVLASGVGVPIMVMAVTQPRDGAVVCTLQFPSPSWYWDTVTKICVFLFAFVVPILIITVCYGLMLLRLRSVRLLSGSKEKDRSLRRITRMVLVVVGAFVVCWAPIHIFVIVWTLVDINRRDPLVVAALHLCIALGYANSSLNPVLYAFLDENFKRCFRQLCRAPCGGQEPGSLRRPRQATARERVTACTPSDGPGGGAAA

| IC50 | SMILES |
| --- | --- |
| ≤ 500 nM | Cc1cc(N2CCC(CCC(=O)O)CC2)c2c(C)c(C)n(-c3c(C)cc(Cl)cc3C)c2n1 [Compound 1-021, 3-{1-[1-(4-chloro-2,6-dimethyl-phenyl)-2,3,6-trimethyl-1H-pyrrolo[2,3-b]pyridin-4-yl]-piperidin-4-yl}-propionic acid] |
| ≤ 500 nM | Cc1cc(N2CCC(CCC(=O)O)CC2)c2c(C)cn(-c3c(C)cc(Cl)cc3C)c2n1 [Compound 1-022, 3-{1-[1-(4-chloro-2,6-dimethyl-phenyl)-3,6-dimethyl-1H-pyrrolo[2,3-b]pyridin-4-yl]-piperidin-4-yl}-propionic acid] |
| ≤ 500 nM | Cc1cc(N2CCC(CCC(=O)O)CC2)c2c(C)cn(-c3c(Cl)cc(Br)cc3Cl)c2n1 [Compound 1-025, 3-{1-[1-(4-bromo-2,6-dichloro-phenyl)-3,6-dimethyl-1H-pyrrolo[2,3-b]pyridin-4-yl]-piperidin-4-yl}-propionic acid] |
| ≤ 500 nM | Cc1cc(N2CCC(CCC(=O)O)CC2)c2c(C)cn(-c3c(Br)cc(Cl)cc3Br)c2n1 [Compound 1-027, 3-{1-[1-(2,6-dibromo-4-chloro-phenyl)-3,6-dimethyl-1H-pyrrolo[2,3-b]pyridin-4-yl]-piperidin-4-yl}-propionic acid] |
| ≤ 500 nM | Cc1cc(N2CCC(CCCC(=O)O)CC2)c2c(C)c(C)n(-c3c(C)cc(Br)cc3C)c2n1 [Compound 1-032, 4-{1-[1-(4-bromo-2,6-dimethyl-phenyl)-2,3,6-trimethyl-1H-pyrrolo[2,3-b]pyridin-4-yl]-piperidin-4-yl}-butyric acid] |
| ≤ 500 nM | Cc1cc(N2CCC(CS(=O)(=O)O)CC2)c2c(C)cn(-c3c(C)cc(Br)cc3C)c2n1 [Compound 1-047, {1-[1-(4-bromo-2,6-dimethyl-phenyl)-3,6-dimethyl-1H-pyrrolo[2,3-b]pyridin-4-yl]-piperidin-4-yl}-methanesulfonic acid] |
| ≤ 500 nM | Cc1cc(N2CCC(CCS(=O)(=O)O)CC2)c2c(C)cn(-c3c(C)cc(Br)cc3C)c2n1 [Compound 1-048, 2-{1-[1-(4-bromo-2,6-dimethyl-phenyl)-3,6-dimethyl-1H-pyrrolo[2,3-b]pyridin-4-yl]-piperidin-4-yl}-ethanesulfonic acid] |

More lines, now with the values behind:

| SMILES | IC50 |
| --- | --- |
| Cc1nc(N2CCC(CC(=O)O)CC2)c2c(C)c(C)n(-c3c(C)cc(Br)cc3C)c2n1 [Compound 1-001, {1-[7-(4-bromo-2,6-dimethyl-phenyl)-2,5,6-trimethyl-7H-pyrrolo[2,3-d]pyrimidin-4-yl]-piperidin-4-yl}-acetic acid] | ≤ 500 nM |
| Cc1nc(N2CCC(CC(=O)O)CC2)c2c(C)cn(-c3c(C)cc(Br)cc3C)c2n1 [Compound 1-002, {1-[7-(4-bromo-2,6-dimethyl-phenyl)-2,5-dimethyl-7H-pyrrolo[2,3-d]pyrimidin-4-yl]-piperidin-4-yl}-acetic acid] | ≤ 500 nM |
| Cc1cc(N2CCC(CC(=O)O)CC2)c2c(C)c(C)n(-c3c(C)cc(Br)cc3C)c2n1 [Compound 1-003, {1-[1-(4-bromo-2,6-dimethyl-phenyl)-2,3,6-trimethyl-1H-pyrrolo[2,3-b]pyridin-4-yl]-piperidin-4-yl}-acetic acid] | ≤ 500 nM |
| Cc1cc(N2CCC(CC(=O)O)CC2)c2c(C)cn(-c3c(C)cc(Br)cc3C)c2n1 [Compound 1-004, {1-[1-(4-bromo-2,6-dimethyl-phenyl)-3,6-dimethyl-1H-pyrrolo[2,3-b]pyridin-4-yl]-piperidin-4-yl}-acetic acid] | ≤ 500 nM |
| Cc1cc(N2CCC(CC(=O)O)CC2)c2c(C)c(C)n(-c3c(C)cc(Cl)cc3C)c2n1 [Compound 1-005, {1-[1-(4-chloro-2,6-dimethyl-phenyl)-2,3,6-trimethyl-1H-pyrrolo[2,3-b]pyridin-4-yl]-piperidin-4-yl}-acetic acid] | ≤ 500 nM |
| Cc1cc(N2CCC(CC(=O)O)CC2)c2c(C)cn(-c3c(C)cc(Cl)cc3C)c2n1 [Compound 1-006, {1-[1-(4-chloro-2,6-dimethyl-phenyl)-3,6-dimethyl-1H-pyrrolo[2,3-b]pyridin-4-yl]-piperidin-4-yl}-acetic acid] | ≤ 500 nM |
| Cc1cc(N2CCC(CC(=O)O)CC2)c2c(C)cn(-c3c(Cl)cc(Cl)cc3Cl)c2n1 [Compound 1-011, {1-[3,6-dimethyl-1-(2,4,6-trichloro-phenyl)-1H-pyrrolo[2,3-b]pyridin-4-yl]-piperidin-4-yl}-acetic acid] | ≤ 500 nM |
| Cc1cc(N2CCC(CC(=O)O)CC2)c2c(C)cn(-c3c(Br)cc(Cl)cc3Br)c2n1 [Compound 1-012, {1-[1-(2,6-dibromo-4-chloro-phenyl)-3,6-dimethyl-1H-pyrrolo[2,3-b]pyridin-4-yl]-piperidin-4-yl}-acetic acid] | ≤ 500 nM |
| Cc1cc(N2CCC(CC(=O)O)CC2)c2c(C)cn(-c3ccc(Br)cc3Br)c2n1 [Compound 1-016, {1-[1-(2,4-dibromo-phenyl)-3,6-dimethyl-1H-pyrrolo[2,3-b]pyridin-4-yl]-piperidin-4-yl}-acetic acid] | ≤ 500 nM |
| Cc1nc(N2CCC(CCC(=O)O)CC2)c2c(C)cn(-c3c(C)cc(Br)cc3C)c2n1 [Compound 1-018, 3-{1-[7-(4-bromo-2,6-dimethyl-phenyl)-2,5-dimethyl-7H-pyrrolo[2,3-d]pyrimidin-4-yl]-piperidin-4-yl}-propionic acid] | ≤ 500 nM |
| Cc1cc(N2CCC(CCC(=O)O)CC2)c2c(C)c(C)n(-c3c(C)cc(Br)cc3C)c2n1 [Compound 1-019, 3-{1-[1-(4-bromo-2,6-dimethyl-phenyl)-2,3,6-trimethyl-1H-pyrrolo[2,3-b]pyridin-4-yl]-piperidin-4-yl}-propionic acid] | ≤ 500 nM |
| Cc1cc(N2CCC(CCC(=O)O)CC2)c2c(C)cn(-c3c(C)cc(Br)cc3C)c2n1 [Compound 1-020, 3-{1-[1-(4-bromo-2,6-dimethyl-phenyl)-3,6-dimethyl-1H-pyrrolo[2,3-b]pyridin-4-yl]-piperidin-4-yl}-propionic acid] | ≤ 500 nM |
| Cc1cc(N2CCC(CCC(=O)O)CC2)c2c(C)cn(-c3c(Cl)cc(Cl)cc3Cl)c2n1 [Compound 1-026, 3-{1-[3,6-dimethyl-1-(2,4,6-trichloro-phenyl)-1H-pyrrolo[2,3-b]pyridin-4-yl]piperidin-4-yl}-propionic acid] | ≤ 500 nM |
| Cc1cc(N2CCC(CP(=O)(O)O)CC2)c2c(C)cn(-c3c(C)cc(Br)cc3C)c2n1 [Compound 1-045, {1-[1-(4-bromo-2,6-dimethyl-phenyl)-3,6-dimethyl-1H-pyrrolo[2,3-b]pyridin-4-yl]-piperidin-4-ylmethyl}-phosphonic acid] | ≤ 500 nM |

From patent US7951811B2, “Pyrrolo[2,3-D]pyrimidine derivatives substituted with a cyclic amino group” (Taisho Pharmaceutical Co., Ltd., priority 2004, dated 2011)
